Assay [1] deals with T1, RnMFE1 (Rattus norvegicus, UniProt P07896).
T1 construct: gene Ehhadh
The assay can be described thus: stopped-flow NADH formation, kobs vs substrate. Format: biochemical. The following applies: 1 mM NAD+, pH 9.0, 50 mM Tris, 50 mM KCl, room temperature; coupled ECH and HAD reactions of the same enzyme. An excerpt: stopped-flow NADH formation, kobs vs substrate on RnMFE1

Assay [2] deals with T2, HsHAD (Homo sapiens, UniProt Q16836).
T2 construct: gene HADH; N-terminal His6 tag in pET28a, E. coli BL21(DE3) pLysS, dimer of 35 kDa subunits
T2 sequence (Q16836 13-314): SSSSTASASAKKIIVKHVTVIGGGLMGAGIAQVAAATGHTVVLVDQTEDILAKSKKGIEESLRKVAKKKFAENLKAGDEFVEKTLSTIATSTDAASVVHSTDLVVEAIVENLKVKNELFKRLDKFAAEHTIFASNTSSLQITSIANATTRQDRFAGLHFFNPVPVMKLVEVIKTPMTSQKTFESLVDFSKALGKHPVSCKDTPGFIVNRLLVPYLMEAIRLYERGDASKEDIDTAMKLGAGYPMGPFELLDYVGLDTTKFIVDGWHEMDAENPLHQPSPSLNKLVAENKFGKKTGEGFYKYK
The assay can be described thus: stopped-flow NADH fluorescence, koff/kon. The format is binding. The source says:
stopped-flow NADH fluorescence, koff/kon on HsHAD

Assay [3] has as its target T3, RnMFE1 (Rattus norvegicus, UniProt P07896, E123A).
T3 construct: gene Ehhadh
Put plainly: stopped-flow NADH fluorescence, koff/kon. Format: binding. The source says: (§1) stopped-flow NADH fluorescence, koff/kon on RnMFE1

Assay [4] deals with T1, RnMFE1. The assay can be described thus: stopped-flow NADH fluorescence, koff/kon. Format: binding.
Excerpt: as §1

Assay [5] has as its target T4, BCDE (Rattus norvegicus, UniProt P07896).
T4 construct: gene Ehhadh; truncated RnMFE1 from Ala260 (ASGQ) to the C-terminus, without domain A (ECH part); N-terminal His6 tag, E. coli BL21(DE3) pLysS
The assay can be described thus: stopped-flow NADH fluorescence, koff/kon. The format is binding. The source says:
stopped-flow NADH fluorescence, koff/kon on BCDE

The target of assay [6] is T3, RnMFE1. Put plainly: stopped-flow tryptophan fluorescence, koff/kon. The format is binding. The source says: (§2) stopped-flow tryptophan fluorescence, koff/kon on RnMFE1
Assay [7] addresses T1, RnMFE1. The assay can be described thus: stopped-flow tryptophan fluorescence, koff/kon. Format: binding.
Excerpt: as §2

Assay [8] has as its target T2, HsHAD. The assay can be described thus: stopped-flow tryptophan fluorescence, koff/kon. The format is binding. The source says: stopped-flow tryptophan fluorescence, koff/kon on HsHAD
Assay [9] addresses T4, BCDE. The assay can be described thus: stopped-flow tryptophan fluorescence, koff/kon. Format: binding. The source says:
stopped-flow tryptophan fluorescence, koff/kon on BCDE

T1 sequence (P07896 whole entry): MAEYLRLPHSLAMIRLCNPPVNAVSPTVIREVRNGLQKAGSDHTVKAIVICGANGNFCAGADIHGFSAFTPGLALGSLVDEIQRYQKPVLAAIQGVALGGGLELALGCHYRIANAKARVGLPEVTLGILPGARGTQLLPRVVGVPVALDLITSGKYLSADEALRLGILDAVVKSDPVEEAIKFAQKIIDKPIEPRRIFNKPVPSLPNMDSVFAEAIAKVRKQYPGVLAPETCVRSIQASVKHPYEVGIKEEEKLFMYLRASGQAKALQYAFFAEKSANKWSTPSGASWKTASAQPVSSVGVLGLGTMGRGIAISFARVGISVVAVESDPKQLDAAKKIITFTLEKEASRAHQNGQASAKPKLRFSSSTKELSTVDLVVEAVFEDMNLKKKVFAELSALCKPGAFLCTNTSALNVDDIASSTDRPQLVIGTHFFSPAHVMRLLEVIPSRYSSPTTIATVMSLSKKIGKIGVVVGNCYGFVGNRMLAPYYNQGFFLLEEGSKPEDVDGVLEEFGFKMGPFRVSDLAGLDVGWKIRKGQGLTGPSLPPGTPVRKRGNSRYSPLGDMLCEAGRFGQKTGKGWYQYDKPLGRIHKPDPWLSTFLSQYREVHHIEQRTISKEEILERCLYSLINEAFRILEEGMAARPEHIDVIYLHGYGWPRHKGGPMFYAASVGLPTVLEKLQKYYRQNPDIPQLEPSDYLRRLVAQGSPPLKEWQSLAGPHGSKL
T3 sequence (P07896 whole entry E123A): as the sequence (P07896 whole entry) above, with E123A counted along it
T4 sequence (P07896 260-722): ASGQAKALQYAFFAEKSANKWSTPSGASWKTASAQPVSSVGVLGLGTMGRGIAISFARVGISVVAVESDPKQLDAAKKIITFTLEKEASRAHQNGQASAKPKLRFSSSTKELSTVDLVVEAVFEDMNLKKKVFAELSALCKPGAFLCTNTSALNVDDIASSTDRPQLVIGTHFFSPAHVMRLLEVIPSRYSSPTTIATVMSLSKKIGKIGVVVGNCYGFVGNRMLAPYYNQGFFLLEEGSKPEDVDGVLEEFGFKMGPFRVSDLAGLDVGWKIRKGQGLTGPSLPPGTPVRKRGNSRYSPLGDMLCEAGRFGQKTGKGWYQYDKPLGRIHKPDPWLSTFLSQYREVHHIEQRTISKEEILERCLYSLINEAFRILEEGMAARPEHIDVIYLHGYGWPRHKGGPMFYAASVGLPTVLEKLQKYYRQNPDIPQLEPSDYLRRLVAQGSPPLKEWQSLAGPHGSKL

Usually Kd stands for the concentration at which binding is half-saturated. A lower Kd goes with higher affinity. On RnMFE1 [1], `C/C=C/C(=O)SCCNC(=O)CCNC(=O)[C@H](O)C(C)(C)COP(=O)(O)OP(=O)(O)OC[C@H]1O[C@@H](n2cnc3c(N)ncnc32)[C@H](O)[C@@H]1OP(=O)(O)O` [2E‐butenoyl‐CoA] displayed a Kd of 1.9 ± 0.1 µM.
As to `NC(=O)C1=CN([C@@H]2O[C@H](COP(=O)(O)OP(=O)(O)OC[C@H]3O[C@@H](n4cnc5c(N)ncnc54)[C@H](O)[C@@H]3O)[C@@H](O)[C@H]2O)C=CC1` [NADH], the Kd was 7 µM at HsHAD [2], 7.5 µM on RnMFE1 [3], 5 µM at RnMFE1 [4] and 5.7 µM at BCDE [5].
Regarding `NC(=O)c1ccc[n+]([C@@H]2O[C@H](COP(=O)(O)OP(=O)(O)OC[C@H]3O[C@@H](n4cnc5c(N)ncnc54)[C@H](O)[C@@H]3O)[C@@H](O)[C@H]2O)c1` [NAD^+], the Kd at RnMFE1 [6] is 8 µM; on RnMFE1 [7], 7.6 µM; at HsHAD [8], 6 µM; on BCDE [9], 7.5 µM.

The values are drawn from publication PMC10988713 (FEBS Open Bio, 2024).
